Data on two compounds can be found in US7015250B2, “Methods and pharmaceutical preparations for normalizing blood pressure with (-)-hydroxycitric acid” (Glykon Technologies Group, LLC, priority 2000, dated 2006).

Structures are written as SMILES. Several values for one entry are separate records, joined by “and”; a condition that tells them apart may be missing. Equal values may be shown once.

For data set [1] the following is noted: treated rats, diets mostly of glucose (e.g. 70% glucose); Sullivan and Triscari 1976; cited from earlier work.
Data set [2] is described as follows: serum NEFA, insulin and corticosterone in rats on a moderate fat diet given potassium hydroxycitrate for 60 days. It counts as in vivo. Particulars: student's T test. The source says: Therefore, animal tests were scrutinized to determine if variations in serum levels of non-esterified fatty acids (NEFA), insulin and corticosterone could explain the novel findings. Ten-week old male rats were placed on a moderate fat diet (30% of calories, which is a high-fat diet for rats) for 60 days. These rats were fed water or potassium hydroxycitrate (0.33 mmols/kg) twice daily by gastric intubation, but were otherwise provided with food and water ad libitum. Five animals were used as controls and two different formulas of potassium hydroxycitrate were provided to five animals each. The differences between control (5 data points) and active (10 data points) were then analyzed according to the student's T test. […] Both of these factors could play a role in the clinical findings of lowered blood pressure in hypertensive individuals. Elevated insulin levels are known to be associated with hypertension. Glucocorticoids, similarly, are associated with hypertension through a variety of mechanisms, including sodium retention.

Data set [3] in a line: pilot open clinical weight loss trial with a pouch delivery form of potassium (−)-hydroxycitrate in extremely obese patients (blood pressure, weight, tolerability). It counts as in vivo, human. Also noted: Starting Blood Pressure: unit not given here. The text has this:
Blood pressure data was acquired from a multi-week pilot open clinical weight loss trial with extremely obese patients which was undertaken to gauge the effects of a pouch delivery form of a potassium salt of (−)-hydroxycitrate under the normal circumstances faced in clinical practice with this patient population. Sixteen patients were enrolled, three of whom were diabetics on medications or insulin. Several others were suspected of suffering from insulin resistance. The patients ingested 3–4 grams of HCA per day in two divided doses. Aside from being informed that they must eat a carbohydrate-containing meal within one hour of taking the HCA and that they should avoid eating late in the day, they were not instructed to follow any special diet or exercise plan outside their normal habits and no caloric restriction was imposed. This particular form of potassium (−)-hydroxycitrate delivery typically was mixed into water or juice and consumed at mid-morning and mid-afternoon. The delivery was a water-soluble immediate release form. […] A number of patients continued on the program for 6 weeks. […] Several other patients experienced good appetite suppression, yet also complained of episodic tiredness at the beginning of the program, a sign of low blood sugar. Two patients subsequently were placed on phentermine. […] The average weight loss over the 3 week period for these 14 patients was approximately 3.1 pounds per person per week. The clinical decision was made that potassium (−)-hydroxycitrate in an immediate release format can exercise a strong hypoglycemic effect in diabetics and that it appears to influence blood sugar levels in protodiabetics, as well. At therapeutically effective dosages, HCA probably should be used with diabetic populations only under a physician's care.
Along with the hypoglycemic effect of the potassium hydroxycitrate, a quite surprising finding was that blood pressure levels in eight patients began to normalize rapidly with this treatment. Elevated blood pressure is common with obese and insulin-resistant patients, and therefore it was unremarkable that in this patient population (ages ranging roughly 30 to 60) that almost one half suffered from hypertension. Following are the readings for the eight hypertensive patients. Many of these patients had been advised to lower salt intake and to increase potassium and magnesium intake. […]

With `O=C(O)CC(O)(C(=O)O)C(O)C(=O)O` (single isomer, unassigned; (-)) [HCA, (−)-Hydroxycitric acid], the “plasma levels of glucose, insulin, or free fatty acids relative to controls” value in data set [1] is on record as “no significant differences”. For the same compound, the “corticosterone levels, HCA groups versus control” value in data set [2] (pooled active (10) vs control (5), one-tailed P 0.0013, two-tailed P 0.0026) was “very significantly lower”. The “insulin levels, HCA groups versus control” value in data set [2] (pooled active (10) vs control (5), one-tailed P 0.0306, two-tailed P 0.0612) was “significantly lower”. For the same compound, in data set [2] (pooled active (10 data points) vs control (5)), the “NEFA, HCA groups versus control” value is “no significant difference”.
Turning to `O=C([O-])CC(O)(C(=O)[O-])C(O)C(=O)[O-].[K+].[K+].[K+]` (stereo not drawn) [potassium hydroxycitrate, potassium (−)-hydroxycitrate], the hypotensive effect entry in data set [3] (as little as 3 grams of HCA per day in divided doses (5 grams of the salt), manifests over one to several weeks) was “significant hypotensive effect”. For the same compound, the “Starting Blood Pressure” value in data set [3] (baseline reading of each of the eight hypertensive, extremely obese patients before treatment) is 150/88 and 178/100 and 130/98 and 150/98 and 140/78 and 180/88 and 120/80 and 170/100. Further, in data set [3] (one patient who followed the program for 10 weeks, 3–4 grams of HCA per day), the “weight loss of one patient” value was 32 pounds. In data set [3] (over the 3 week period, 14 patients, 3–4 grams of HCA per day, no caloric restriction), the average weight loss entry was “approximately 3.1 pounds per person per week”. In addition, the tolerability entry in data set [3] (pre-commercial pouch preparation, patients complained of inconvenience and poor taste) was “no other issues of tolerability”. The hypoglycemic reactions result in data set [3] (two of the diagnosed diabetics on medications or insulin, 3–4 grams of HCA per day, immediate release) is “severe hypoglycemic reactions”.
